Test results: patent publication US4348410A, “Cyclohexane carboxylic acid derivatives” (Nippon Chemiphar Co., Ltd., priority 1979, dated 1982)

How the values were obtained:
[1] = test system: cysteamine-induced duodenal ulcers; experiment: Duodenal ulcers (cysteamine-induced); assay type: in vivo, Female Sprague-Dawley strain rats
Description: Female Sprague-Dawley strain rats, weighing about 200 g were deprived of food for 24 hours prior to experiment. Cysteamine 400 mg/kg was given subcutaneously once to the rats. The animals were provided food and libitum from the 7 hours later. The test drug was given orally as aqueous suspension after 7 hours, the administration of cysteamine, then daily×4. On the next morning of the last administration, the animals were sacrificed under ether anesthesia. The ulcer area (mm^2) was measured and described as ulcer index.

thrombin = thrombin (Bos taurus, UniProt P00735); experiment: Inhibitory effects on thrombin (hydrolysis of p-tosylarginine methyl ester); assay type: biochemical; conditions: 37° C., 10 minutes; concentration not given
Description: The compounds of the formula (I) have excellent inhibitory effects on protease. The inhibitory effects were determined by the following methods:
Inhibitory effects of the compounds on thrombin were determined according to the method described by M. Muramatsu et al (The Journal of Biochemistry, Volume 65 (1), 17 (1969)). In particular, inhibitory effects of the compounds on hydrolysis of p-tosylarginine methyl ester by thrombin were examined (incubated at 37° C. for 10 minutes).

gastric secretion = experiment: Influence to the gastric secretion (pylorus ligation); assay type: in vivo, Male Sprague-Dawley strain rats
Description: Male Sprague-Dawley strain rats, weighing 160-180 g were deprived of food but allowed free access to water for 20 hours prior to experiment. […] The test drug was given intraperitoneally immediately after pylorus ligation. The rats were sacrificed 3, 6 and 12 hours later and the stomachs removed. The gastric juice was collected and analyzed for volume. Then the gastric juice was centrifuged at 1300 g for 10 minutes at room temperature to give the supernatant. The total acidity and peptic activity of the supernatant were determined. Total acidity was determined by titrating with 0.01 N NaOH. […] Total acidity is shown as the titration volume (ml) and peptic activity is shown as the corresponding weight (mg) to crystal pepsin.

trypsin = target: T1, trypsin (Bos taurus, UniProt P00760); experiment: Inhibitory effects on trypsin (hydrolysis of p-tosylarginine methyl ester); assay type: biochemical; conditions: 37° C., 10 minutes; concentration not given
T1 sequence (P00760 24-246): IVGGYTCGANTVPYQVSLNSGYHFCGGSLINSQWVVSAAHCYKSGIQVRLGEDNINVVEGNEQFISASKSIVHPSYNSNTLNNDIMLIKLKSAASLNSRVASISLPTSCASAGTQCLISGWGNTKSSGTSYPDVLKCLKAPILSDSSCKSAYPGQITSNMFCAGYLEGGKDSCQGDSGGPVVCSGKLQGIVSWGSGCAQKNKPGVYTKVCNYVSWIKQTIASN
Description: In particular, inhibitory effects of the compounds on hydrolysis of p-tosylarginine methyl ester by trypsin were examined (incubated at 37° C. for 10 minutes).

chymotrypsin = chymotrypsin (Bos taurus, UniProt P00766); experiment: Inhibitory effects on chymotrypsin (hydrolysis of N-acetyl-L-tyrosine ethyl ester); assay type: biochemical; conditions: 37° C., 10 minutes; concentration not given
Description: The compounds of the formula (I) have excellent inhibitory effects on protease. The inhibitory effects were determined by the following methods: Inhibitory effects on the compounds of chymotrypsin were determined according to the method described by M. […] In particular, inhibitory effects of the compounds on hydrolysis of N-acetyl-L-tyrosine ethyl ester by chymotrypsin were examined (incubated at 37° C. for 10 minutes).

acetic acid ulcers = experiment: Acetic acid ulcers; assay type: in vivo, Male Sprague-Dawley strain rats; conditions: for Ulcer Grade 1 (number of rats): ulcer area 0-10 mm^2; for Ulcer Grade 2 (number of rats): ulcer area 11-20 mm^2; for Ulcer Grade 3 (number of rats): ulcer area 21-30 mm^2; for Ulcer Grade 4 (number of rats): ulcer area 31-40 mm^2; for Ulcer Grade 5 (number of rats): ulcer area >40 mm^2
Description: Male Sprague-Dawley strain rats, weighing about 200 g were used. Under ether anesthesia 10% acetic acid solution (0.05 ml) was injected carefully between the serous membrane and the muscle near the pylorus, and the abdomen was closed. Thereafter, the animals were maintained under conditions and administered 1 ml/100 g of each test drug dissolved or suspended in 0.5% carboxymethylcellulose solution p.o. daily×10 starting from the next day of the operation. On the 11th day, the rats were sacrificed under ether anesthesia, and the stomachs were removed. The area of the ulcer was measured and graded into 5 degrees as an ulcer index according to the following method: […]

N=C(N)NC[C@H]1CC[C@H](C(=O)Oc2ccccc2C(=O)OCc2ccccc2)CC1 [Compound 1]
Inhibition (%) ([1]; 250 mg/kg orally): 72.1%
Ulcer Index (mm^2) ([1]; 250 mg/kg orally): 22.5 ± 3.9 mm^2
Inhibition (%) ([1]; 500 mg/kg orally): 85.5%
Ulcer Index (mm^2) ([1]; 500 mg/kg orally): 11.7 ± 3.6 mm^2
Inhibition (%) Thrombin (thrombin): 37%
Gastric Contents Volume (gastric secretion; 3 hours, 75 mg/kg i.p.): 2.6 ± 0.4 mL
Gastric Contents Volume % change (gastric secretion; 3 hours, 75 mg/kg i.p.): 10.3%
Titratable Acid Output (gastric secretion; 3 hours, 75 mg/kg i.p.): 39.2 ± 11.6 μEg
Titratable Acid Output % change (gastric secretion; 3 hours, 75 mg/kg i.p.): 52.5%
Titratable Pepsin Output (gastric secretion; 3 hours, 75 mg/kg i.p.): 5.7 ± 1.5 mg
Titratable Pepsin Output % change (gastric secretion; 3 hours, 75 mg/kg i.p.): 1.7%
Gastric Contents Volume (gastric secretion; 3 hours, 150 mg/kg i.p.): 0.7 ± 0.3 mL
Gastric Contents Volume % change (gastric secretion; 3 hours, 150 mg/kg i.p.): 75.9%
Titratable Acid Output (gastric secretion; 3 hours, 150 mg/kg i.p.): 9.8 ± 3.3 μEg
Titratable Acid Output % change (gastric secretion; 3 hours, 150 mg/kg i.p.): 88.1%
Titratable Pepsin Output (gastric secretion; 3 hours, 150 mg/kg i.p.): 1.4 ± 0.7 mg
Titratable Pepsin Output % change (gastric secretion; 3 hours, 150 mg/kg i.p.): 75.9%
Gastric Contents Volume (gastric secretion; 3 hours, 300 mg/kg i.p.): 0.5 ± 0.2 mL
Gastric Contents Volume % change (gastric secretion; 3 hours, 300 mg/kg i.p.): 82.8%
Titratable Acid Output (gastric secretion; 3 hours, 300 mg/kg i.p.): 4.6 ± 3.3 μEg
Titratable Acid Output % change (gastric secretion; 3 hours, 300 mg/kg i.p.): 94.4%
Titratable Pepsin Output (gastric secretion; 3 hours, 300 mg/kg i.p.): 0.9 ± 0.6 mg
Titratable Pepsin Output % change (gastric secretion; 3 hours, 300 mg/kg i.p.): 84.5%
Gastric Contents Volume (gastric secretion; 6 hours, 75 mg/kg i.p.): 4.2 ± 0.6 mL
Gastric Contents Volume % change (gastric secretion; 6 hours, 75 mg/kg i.p.): 31.1%
Titratable Acid Output (gastric secretion; 6 hours, 75 mg/kg i.p.): 259.8 ± 61.8 μEq
Titratable Acid Output % change (gastric secretion; 6 hours, 75 mg/kg i.p.): 32.0%
Titratable Pepsin Output (gastric secretion; 6 hours, 75 mg/kg i.p.): 13.9 ± 3.0 mg
Titratable Pepsin Output % change (gastric secretion; 6 hours, 75 mg/kg i.p.): 35.9%
Gastric Contents Volume (gastric secretion; 6 hours, 150 mg/kg i.p.): 1.5 ± 0.3 mL
Gastric Contents Volume % change (gastric secretion; 6 hours, 150 mg/kg i.p.): 75.4%
Titratable Acid Output (gastric secretion; 6 hours, 150 mg/kg i.p.): 85.3 ± 49.4 μEq
Titratable Acid Output % change (gastric secretion; 6 hours, 150 mg/kg i.p.): 77.7%
Titratable Pepsin Output (gastric secretion; 6 hours, 150 mg/kg i.p.): 4.7 ± 1.1 mg
Titratable Pepsin Output % change (gastric secretion; 6 hours, 150 mg/kg i.p.): 78.3%
Gastric Contents Volume (gastric secretion; 6 hours, 300 mg/kg i.p.): 1.5 ± 0.3 mL
Gastric Contents Volume % change (gastric secretion; 6 hours, 300 mg/kg i.p.): 75.4%
Titratable Acid Output (gastric secretion; 6 hours, 300 mg/kg i.p.): 70.4 ± 30.4 μEq
Titratable Acid Output % change (gastric secretion; 6 hours, 300 mg/kg i.p.): 81.6%
Titratable Pepsin Output (gastric secretion; 6 hours, 300 mg/kg i.p.): 3.5 ± 1.4 mg
Titratable Pepsin Output % change (gastric secretion; 6 hours, 300 mg/kg i.p.): 83.9%
Gastric Contents Volume (gastric secretion; 12 hours, 75 mg/kg i.p.): 5.2 ± 2.1 mL
Gastric Contents Volume % change (gastric secretion; 12 hours, 75 mg/kg i.p.): 61.5%
Titratable Acid Output (gastric secretion; 12 hours, 75 mg/kg i.p.): 394.6 ± 136.5 μEq
Titratable Acid Output % change (gastric secretion; 12 hours, 75 mg/kg i.p.): 51.9%
Titratable Pepsin Output (gastric secretion; 12 hours, 75 mg/kg i.p.): 27.3 ± 8.6 mg
Titratable Pepsin Output % change (gastric secretion; 12 hours, 75 mg/kg i.p.): 52.9%
Gastric Contents Volume (gastric secretion; 12 hours, 150 mg/kg i.p.): 6.3 ± 0.9 mL
Gastric Contents Volume % change (gastric secretion; 12 hours, 150 mg/kg i.p.): 53.3%
Titratable Acid Output (gastric secretion; 12 hours, 150 mg/kg i.p.): 387.3 ± 79.3 μEq
Titratable Acid Output % change (gastric secretion; 12 hours, 150 mg/kg i.p.): 52.8%
Titratable Pepsin Output (gastric secretion; 12 hours, 150 mg/kg i.p.): 24.0 ± 4.2 mg
Titratable Pepsin Output % change (gastric secretion; 12 hours, 150 mg/kg i.p.): 58.6%
Gastric Contents Volume (gastric secretion; 12 hours, 300 mg/kg i.p.): 3.6 ± 0.6 mL
Gastric Contents Volume % change (gastric secretion; 12 hours, 300 mg/kg i.p.): 73.3%
Titratable Acid Output (gastric secretion; 12 hours, 300 mg/kg i.p.): 258.4 ± 66.9 μEq
Titratable Acid Output % change (gastric secretion; 12 hours, 300 mg/kg i.p.): 68.5%
Titratable Pepsin Output (gastric secretion; 12 hours, 300 mg/kg i.p.): 14.0 ± 2.4 mg
Titratable Pepsin Output % change (gastric secretion; 12 hours, 300 mg/kg i.p.): 75.9%
Inhibition (%) Trypsin (trypsin): 79%
Inhibition (%) Chymotrypsin (chymotrypsin): 100%
Ulcer Grade 1 (number of rats) (acetic acid ulcers; 125 mg/kg p.o. daily×10): 15
Ulcer Grade 2 (number of rats) (acetic acid ulcers; 125 mg/kg p.o. daily×10): 1
Ulcer Grade 3 (number of rats) (acetic acid ulcers; 125 mg/kg p.o. daily×10): 2
Ulcer Grade 4 (number of rats) (acetic acid ulcers; 125 mg/kg p.o. daily×10): 0
Ulcer Grade 5 (number of rats) (acetic acid ulcers; 125 mg/kg p.o. daily×10): 0
Ulcer Grade 1 (number of rats) (acetic acid ulcers; 250 mg/kg p.o. daily×10): 14
Ulcer Grade 2 (number of rats) (acetic acid ulcers; 250 mg/kg p.o. daily×10): 1
Ulcer Grade 3 (number of rats) (acetic acid ulcers; 250 mg/kg p.o. daily×10): 1
Ulcer Grade 4 (number of rats) (acetic acid ulcers; 250 mg/kg p.o. daily×10): 0
Ulcer Grade 5 (number of rats) (acetic acid ulcers; 250 mg/kg p.o. daily×10): 0
Ulcer Grade 1 (number of rats) (acetic acid ulcers; 500 mg/kg p.o. daily×10): 16
Ulcer Grade 2 (number of rats) (acetic acid ulcers; 500 mg/kg p.o. daily×10): 2
Ulcer Grade 3 (number of rats) (acetic acid ulcers; 500 mg/kg p.o. daily×10): 0
Ulcer Grade 4 (number of rats) (acetic acid ulcers; 500 mg/kg p.o. daily×10): 0
Ulcer Grade 5 (number of rats) (acetic acid ulcers; 500 mg/kg p.o. daily×10): 0
